# Measurements from US12060310B2, “Compositions and methods of using itaconic acid derivatives” (ERGON PHARMACEUTICALS, LLC, priority 2018, dated 2024).
# Entries after “also recorded” stand apart in the source; their conditions may differ.
# Experiments:
# [1] = system: C6-IRG1-9 rat glioma cells; assay: C6-IRG1-9 rat glioma cell proliferation (CyQuant); assay type: cell-based; settings: various concentrations, 48 hrs; FIG. 3
# Method: Tumor Cell Proliferation Assay. This assay was used to assess the anti-tumor properties of a therapeutic agent in vitro. In a typical proliferation assay, cells were cultured to near confluency in the appropriate media. Subsequently, the cells were trypsinized and plated onto 96-well plates at 2,000 or 5,000 cell per well. The cells were cultured for 48 to 96 hours in the presence or absence of the therapeutic agent. Cell proliferation was then determined using spectrophotometry (MTT assay, BrdU assay) or fluorimetry (Cyquant assay).
# Inhibition of C6-IRG1-9 Rat Glioma cell proliferation. C6-IRG1-9 cells are rat C6 glioma cells that have been transfected to overexpress IRG1. Overexpression of IRG1 is maintained by culturing the cells in DMEM media containing 0.55 μg/mL puromycin. For the proliferation assays, the cells were plated onto a 96-well plate at a density of 2,000 cells/well. The cells were allowed to adhere overnight; they were subsequently treated with various concentrations of compounds of Formula (2) for 48 hrs. At the end of the incubation period, the number of cells is assessed using the CyQuant Cell Proliferation kit (Thermo Fisher) according to the manufacturer's instructions. The results, shown in FIG. 3, indicate that compounds of Formula (2) are able to reduce or abrogate growth of C6-IRG1-9 cells. In FIG. 3, cell proliferation is expressed as % Untreated Control, defined as: (t−s)*100/(c−s), where t is the number of cells present in a treated well at the end of the incubation period, c is the number of cells present in an untreated well at the end of the incubation period, and s is the initial number of cells in the wells prior to initiation of treatment.
# M-MDSCs in CT26 tumors = assay: Tumor immunophenotyping of CT26 tumors (MDSCs); assay type: in vivo, mouse; settings: 0.2 mg/kg ip, twice a day; tumors 250-1500 mm^3; FIG. 7
# Method: Tumor Immunophenotyping. To determine the effect of a therapeutic agent on a specific immune cell type in vivo, syngeneic tumor models were employed. In a typical experiment, tumors were allowed to grow to a certain size and were then treated for a specific number of days prior to termination. At the end of the experiment, animals were euthanized, tumors were excised and single cell suspensions were immediately obtained through dissociation of tumor tissues with collagenase. Tumor cell suspensions were then subject to FACS analysis in order to determine the presence of various biomarkers.
# Tumor Immunophenotyping of CT26 Tumors. CT26-tumor bearing mice treated with either vehicle control or 0.2 mg/kg Compound (6) (ip, twice a day) were euthanized when the tumors had reached a size of 250-1500 mm^3. Tumors were excised and single cell suspensions were obtained using the tumor dissociation kit from Miltenyi Biotec per manufacturer's instructions. The suspensions were analyzed for the presence of MDSCs.
# [2] = system: TNFα secretion from LPS-stimulated human monocyte derived macrophages (hMDMs); assay: Inhibition of TNFα secretion (in vitro inflammation assay), ELISA; assay type: cell-based; settings: 1 μg/mL LPS, 6 h, concentrations ≥500 μM, FIG. 2
# Method: In Vitro Inflammation Assay. In vitro inflammation was assessed by measuring the concentration of TNFα in the conditioned media of macrophages stimulated with 0.1-1 μg/mL LPS in the presence or absence of the compound of interest after 4-6 hrs.
# Inhibition of TNFα secretion. hMDMs were pretreated with various concentrations of Compound (6) for 15 min and then stimulated with 1 μg/mL LPS. Conditioned media were collected 6 h later and TNFα concentrations were determined by ELISA.
# [3] = system: CT26 mouse colorectal tumors; assay: Survival of CT26 tumor-bearing mice (in vivo anti-tumor effect)
# Method: In Vivo Anti-Tumor Effect. The anticancer properties of the therapeutic agent were evaluated in vivo by determining the ability of the agent to suppress tumor growth and/or increase survival of tumor-bearing animals. In a typical experiment, 0.1-1×10^6 tumor cells, suspended in PBS containing 20% Matrigel, were injected subcutaneously in the right flank of each mouse. When the tumors became palpable, the animals were randomized into different groups and treatment began. In vivo tests routinely included a vehicle control group and different doses and/or routes of administration of the therapeutic agent. Tumor growth was assessed using calipers and the following formula: Tumor Volume=length×width×width×½
# The Kaplan-Meier analysis was used to estimate the survival probability of the tumor-bearing animals.
# C57BL/6 mice were injected subcutaneously in the right flank with 1×10^5 CT26 mouse colorectal tumor cells, suspended in PBS containing 20% Matrigel. The tumors were allowed to grow to ˜100 mm^3. The mice were randomized into two groups (n=6 animals/group): one group received vehicle control and the other group was treated with i.p. injections of 0.2 mg/kg Compound (6) twice a week (Tuesday-Thursday). The experiment continued for 27 days, at which point the mortality rate of control animals was 80%. […] The experiment was repeated (FIG. 6B). In FIG. 6B, treated animals received oral administrations of 3 mg/kg Compound (6) twice a day.
# IRG1 = target: T1, IRG1 (Homo sapiens, UniProt A6NK06); assay: Itaconic acid synthesis by LPS-stimulated macrophages (inhibition of IRG1), GC-MS; assay type: cell-based; settings: LPS-stimulated hMDMs; pretreated 50, 100, 500 μM for 15 min, LPS 8 hrs; FIG. 1
# T1 construct: Human monocytes, isolated from peripheral blood and differentiated into macrophages; endogenous in cells; host or cells: human monocyte-derived macrophages (hMDMs), M-CSF differentiated, LPS stimulated
# T1 sequence (A6NK06 1-481): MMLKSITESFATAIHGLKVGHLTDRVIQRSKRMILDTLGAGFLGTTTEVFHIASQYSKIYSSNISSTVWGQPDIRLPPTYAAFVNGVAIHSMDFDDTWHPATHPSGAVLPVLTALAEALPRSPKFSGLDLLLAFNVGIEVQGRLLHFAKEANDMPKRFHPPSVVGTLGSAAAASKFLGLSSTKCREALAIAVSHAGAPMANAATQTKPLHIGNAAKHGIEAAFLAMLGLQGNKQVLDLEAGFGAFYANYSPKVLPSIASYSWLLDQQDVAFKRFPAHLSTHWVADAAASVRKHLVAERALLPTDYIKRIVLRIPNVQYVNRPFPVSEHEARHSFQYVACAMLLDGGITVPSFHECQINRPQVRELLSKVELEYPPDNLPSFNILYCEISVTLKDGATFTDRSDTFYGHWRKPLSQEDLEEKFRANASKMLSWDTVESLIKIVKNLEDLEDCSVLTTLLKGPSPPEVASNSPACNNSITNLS
# Method: Inhibition of IRG1. Itaconic acid levels are a measure of IRG1 expression/activity. To determine the activity of IRG, hMDMs were stimulated with 100 ng/ml LPS for 8 hrs in the presence or absence of the therapeutic agent. Gas chromatography-mass spectroscopy (GC-MS) was used to estimate the intracellular and extracellular concentration of the itaconic acid. In a typical assay, 1-5×10^6 cells were plated onto a 6-well plate and allowed to adhere overnight. The cells were then stimulated with 0.1-1 μg/mL LPS in the presence or absence of the compound of interest for 8 hrs. The cells were then washed and metabolites were extracted using methanol/water and acetonitrile additions. The aqueous phase of the mixture was dried and metabolites present were derivatized prior to the detection by GC-MS.
# Itaconic Acid Synthesis by LPS-Stimulated Macrophages after Treatment with Compound (6). Human monocytes, isolated from peripheral blood and differentiated into macrophages in the presence of 100 ng/ml monocyte colony-stimulating factor (M-CSF) for 5 days, were plated onto a 6-well plate at a density of 1×10^6 cells/well. The cells were allowed to adhere overnight. […] Derivatized metabolites were analyzed by GC-MS. The amount of itaconic acid present in the samples was determined after peak integration. […]
# [4] = system: trimethylated lysine site 4 of histone 3 (H3K4me3); assay: Epigenetic modification, Western immunoblotting of H3K4me3; assay type: cell-based, human; settings: 10 μM, 72 hrs, TCR-activated hCD8+ T cells; FIG. 5
# Method: Epigenetic Modifications. The ability of a therapeutic agent to alter acetylation and/or methylation of histones was assessed by Western Immunoblotting. Briefly, immune and other type cells were collected after being exposed to the therapeutic agent or vehicle control for a specific period of time, typically 24-72 hrs. They were then lysed and cell lysates from control and treated cells contained equal amounts of proteins were subjected to SDS-PAGE electrophoresis. The presence of acetylated and methylated histone sites was determined by Western Immunoblotting using appropriate antibodies.
# Epigenetic Modification. TCR-activated hCD8^+ T cells were exposed to 0 or 10 µM Compound (6) for 72 hrs prior to lysing. Equal amounts of cell lysates were subjected to gel electrophoresis and Western immunoblotting against trimethylated lysine site 4 of histone 3 (H3K4me3). The experiment also included cell lysates from naïve cells. Image J was used for protein quantification. Western immunoblotting against histone 3 (H3) was also performed for normalization purposes. […] Exposure of the hCD8^+ T cells to 10 μM Compound (6) led to the depletion of trimethylated H3K4. H3K4me3 is commonly associated with activation of transcription.
# [5] = system: TCR-activated hCD8+ T cells; assay: CD8+ T cell proliferation (CFSE dilution, flow cytometry); assay type: cell-based, human; settings: 10 nM; versus untreated TCR-activated control cells; FIG. 4
# Method: Augmentation of CD8^+ T Cell Proliferation. Naïve hCD8^+ T cells were isolated from commercially available buffy coats using magnetic separation and the appropriate kit from Miltenyi Biotec. Cells were then subject to TCR activation using a cocktail of anti-CD2/anti-CD3/anti-CD28 antibodies. Untreated control and treated cells were included in the experiment. The cells were cultured for 72 hrs in TexMACS media (Miltenyi Biotec) without IL-2 and for an additional 48 hrs in TexMACS media containing 20 U human IL-2/mL. Cell division was assessed by flow cytometry using the carboxyfluorescein succimidyl ester (CFSE) dilution method.
# [6] = system: TCR-activated hCD8+ T cells; assay: hCD8+ T cell differentiation into effector T cells (IFNγ and GZMB release, ELISA); assay type: cell-based, human
# Method: Differentiation of T Cells. The ability of T cells to differentiate from a naïve to an effector state was assessed by measuring the levels of IFNγ or GZMB synthesis following activation of the cells using a cocktail of anti-CD2/anti-CD3/anti-CD28 antibodies. Expression of IFNγ, GZMB, and other effector cytokines was measured by determining their concentration in the conditioned media 24-72 hrs after initiation of activation or by estimating the % cells expressing these cytokines using fluorescence-activated cell sorting (FACS).
# Augmentation of hCD8^+ T Cell Differentiation into Effector T Cells. Naïve CD8+ T cells were isolated from human buffy coats using magnetic separation and the appropriate kit from Miltenyi Biotec. Cells were then activated using a cocktail of anti-CD2/anti-CD3/anti-CD28 antibodies. Differentiation of the cells into effector T cells was assessed by determining the levels of IFNγ and GZMB released into the media at 24 and 72 hrs, respectively using appropriate ELISA kits. Cytokine concentrations were normalized per number of cells present and expressed as % Untreated Control.
# [7] = 3 mg/kg oral twice a day, end of experiment
compound,measurement,setting,value
"O=C(O)CC(=Cc1ccc(F)cc1)C(=O)O [Compound (5), 2-[(4-fluorophenyl)methylidene]butanedioic acid]",cell proliferation of C6-IRG1-9 cells,[1],inhibition of proliferation
"O=C(O)CC(=Cc1ccccc1)C(=O)O [(4), 2-(phenylmethylidene)butanedioic acid]",cell proliferation of C6-IRG1-9 cells,[1],inhibition of proliferation
"O=C(O)/C(=C\c1ccc(F)cc1)C(Cc1ccccc1)C(=O)O (stereo not drawn) [Compound (6), 2-benzyl-3-[(4-flurophenyl)methylidene]butanedioic acid]",cell proliferation of C6-IRG1-9 cells,[1],inhibition of proliferation
same,intratumoral frequency of M-MDSCs,M-MDSCs in CT26 tumors,significantly reduces
same,secretion of TNFα,[2],inhibits in vitro inflammation; also recorded: reduced secretion
same,survival (Kaplan-Meier) of CT26 tumor-bearing mice,"[3]; 0.2 mg/kg i.p. twice a week, 27 days, versus vehicle control, FIG. 6A",survival advantage
same,animals with complete tumor regression,[3]; [7],⅙
same,mice exhibiting slower tumor growth,[3]; [7],⅚
same,survival of CT26 tumor-bearing mice,"[3]; 3 mg/kg orally twice a day, FIG. 6B",increased survival
same,extracellular levels of itaconic acid,IRG1,suppressed
same,intracellular levels of itaconic acid,IRG1,suppressed
same,trimethylated H3K4 (H3K4me3/H3 ratio),[4],depletion
same,proliferation of hCD8+ T cells,[5],increased proliferation
same,IFNγ synthesis,[6]; high (>100 μM) concentrations,decrease
same,production of GZMB,[6]; low concentrations,increase production
same,synthesis of INFγ following TCR activation,"[6]; low concentrations, range of 0.1 nM to 100 µM",increased synthesis
"CC(C)=C(CC(=O)O)C(=O)O [(3), 2-(propan-2-ylidene)butanedioic acid]",cell proliferation of C6-IRG1-9 cells,[1],inhibition of proliferation
"C=CCC(C(=O)O)/C(=C/c1ccc(F)cc1)C(=O)O (stereo not drawn) [(7), 2-[(4-flurophenyl)methylidene]-3-(prop-2-ene-1-yl)butanedioic acid]",cell proliferation of C6-IRG1-9 cells,[1],inhibition of proliferation
